# Like-named read-outs stand apart in the source and are kept apart here.
# Columns and labels:
# [1] = tested on: control tobacco, not transformed (PBD6); assay: Greenhouse treatment of non-transformed control tobacco with isoxaflutole; assay type: in vivo
# Protocol: Upon leaving in vitro, the transformed tobacco plantlets were acclimatized in a greenhouse (60% relative humidity, temperature: 20° C. at night and 23° C. during the day) for five weeks and then treated with 4-[4-CF3-2-(methylsulphonyl)benzoyl]-5-cyclopropylisoxazole.
# The control tobacco, not transformed and treated with 4-[4-CF3-2-(methylsulphonyl)benzoyl]-5-cyclopropylisooxazole at doses ranging from 50 to 400 g/ha, develop chlorosis in about 72 hours, which intensifies and develops into very pronounced necrosis within one week (covering about 80% of the terminal leaves).
# [2] = tested on: PBD6 tobacco overexpressing the P. fluorescens HPPD; assay: Greenhouse treatment of transformed tobacco overexpressing HPPD with isoxaflutole; assay type: in vivo
# From the text: To determine the efficiency of these two chimeric genes, they were transferred into the industrial tobacco PBD6 according to the transformation and regeneration techniques already described in European Application EP No. 0 508 909.
# The vector is introduced into the non oncogenic Agrobacterium EHA 101 strain (Hood et al., 1987) carrying the cosmaid pTVK 291 (Komari et al., 1986). The transformation technique is based on the procedure by Horsh R. et al., (1985) Science, 227, 1229-1231.
# The regeneration of the PBD6 tobacco (source SEITA France) from foliar explants is carried out on a Murashige and Skoog (MS) basal medium comprising 30 g/l of sucrose and 100 μg/ml of kanamycin. The foliar explants are removed from greenhouse plants or in vitro and transformed according to the foliar disc technique (Science 1985, Vol. 227, p. 1229-1231) in three successive stages: the first comprises the induction of shoots on an MS medium supplemented with 30 g/l of sucrose containing 0.05 mg/l of naphthylacetic acid (ANA) and 2 mg/l of benzylaminopurine (BAP) for 15 days. The shoots formed during this stage are then developed by culturing on an MS medium supplemented with 30 g/l of sucrose but containing no hormone, for 10 days. […]
# [3] = tested on: PBD6 tobacco plants HPPD + OXY; assay: Postemergence tolerance of tobacco, percentage destruction; assay type: in vivo; settings: 17 days after treatment
# Protocol: (§1) In this trial, each test is performed on a sample of 10 plants, 10 plants being kept untreated.
# (§2) All the treatments are performed by spraying at the rate of 500 l of spraying mixture per hectare.
# (§3) For the postemergence treatment, sowing is performed and then the plants are transplanted in 9 cm×9 cm pots.
# (§4) The postemergence treatments are carried out at a well developed stage (3-4 leaves). Batches of plants, respectively wild-type and genetically transformed, obtained above are divided into several parts, with: […]
# [4] = tested on: wild-type tobacco without tolerance gene; assay: as above; assay type: in vivo; settings: 17 days after treatment
# Protocol: as §1, §2, §3, §4
# [5] = tested on: PBD6 tobacco plants HPPD + EPSPS; assay: as above; assay type: in vivo; settings: 17 days after treatment
# Protocol: as §1, §2, §3
# The postemergence treatments are carried out at a well developed stage (3-4 leaves). Batches of plants, respectively wild-type and genetically transformed, obtained above are divided into several parts, with:
# Under these conditions, the following phytotoxicities are observed 17 days after the treatment, expressed as percentage destruction indicated in the following table, as well as the number of plants per batch and the doses of herbicide(s) expressed in gram of active substance per hectare: […]
# [6] = tested on: PBD6 tobacco transformed with pRP 2012; assay: Tolerance of tobacco transformed with chimeric gene pRP 2012 (HPPD + double mutant EPSPS); assay type: in vivo; settings: under the conditions described in Example 7
# Protocol: The chimeric gene pRP 2012 described below is transferred into the PBD6 industrial tobacco according to the transformation and regeneration procedures already described in European Application EP No. 0 508 909.
# The regeneration of the PBD6 tobacco (source SEITA France) from foliar explants is carried out on a Murashige and Skoog (MS) basal medium comprising 30 g/l of sucrose and 350 mg/l of cefotaxime and 1 mg/l of isoxaflutole. The foliar explants are removed from is greenhouse plants or in vitro and transformed according to the foliar disc technique (Science 1985, Vol. 227, p. 1229-1231) in three successive stages: the first comprises the induction of shoots on an MS medium supplemented with 30 g/l of sucrose containing 0.05 mg/l of naphthylacetic acid (ANA) and 2 mg/l of benzylaminopurine (BAP) for 15 days and 1 mg/l of isoxaflutole. The green shoots formed during this stage are then developed by culturing on an MS medium supplemented with 30 g/l of sucrose and 1 mg/l of isoxaflutole but containing no hormone, for 10 days. The shoots that have developed are then removed and they are cultured on MS rooting medium with half the content of salts, vitamins and sugars and 1 mg/l of isoxaflutole and containing no hormone. […]
# All the plants obtained according to this protocol are analysed by PCR with primers specific for P. fluorescens HPPD. […]
# nontransgenic maize = assay: Selection of maize seeds on sand after isoxaflutole treatment; assay type: in vivo; settings: 100 g/ha, 20 seeds sown
# Protocol: (§5) The transformed plants obtained above produced pollen, assumed in part to be transgenic, which fertilized ovules from a nontransgenic wild-type maize. The seeds obtained are selected on sand after treating with isoxaflutole.
# The selection protocol is the following: 800 ml of Fontainebleau sand are placed in a tub with sides 15×20 cm. These tubs are then sprayed with water and kept hydrated by supplying a nutritive solution consisting of 5 ml of Quinoligo (Quinoline) per litre of water. Twenty maize seeds are placed on the tubs, which are then treated with isoxaflutole by spraying at the rate of 100 to 200 g of active substance per hectare (300 or 600 μg of active substance per tub). The tubs are then placed in culture in a greenhouse.
# [7] = tested on: maize genotype 261 2A2 (progeny of HPPD-transformed plants); assay: as above; assay type: in vivo; settings: 10 seeds sown
# Protocol: as §5
# (§6) The selection protocol is the following: 800 ml of Fontainebleau sand are placed in a tub with sides 15×20 cm. These tubs are then sprayed with water and kept hydrated by supplying a nutritive solution consisting of 5 ml of Quinoligo (Quinoline) per litre of water. […] The tubs are then placed in culture in a greenhouse.
# [8] = tested on: maize genotype 261 2B 459 (progeny of HPPD-transformed plants); assay: as above; assay type: in vivo; settings: 10 seeds sown
# Protocol: as §5, §6
# [9] = tested on: maize genotype 261 2D2 (progeny of HPPD-transformed plants); assay: as above; assay type: in vivo; settings: 10 seeds sown
# Protocol: as §5, §6
# [10] = tested on: maize EPSPS mutant Ala 101/Ile 102; assay: EPSP synthase enzymatic activity, resistance to glyphosate in vitro; assay type: biochemical
# Protocol: (§7) The various EPSP synthase genes are introduced in the form of an NcoI-HindIII cassette into the plasmid is vector pTrc99a (Pharmacia, ref: 27-5007-01) cut with NcoI and HindIII. The recombinant E. coli DH10B overexpressing the various EPSP syntheses are sonicated in 40 ml of buffer per 10 g of culotted cells and washed with this same buffer (200 mM Tris-HCl pH 7.8, 50 mM mercaptoethanol, 5 mM EDTA and 1 mM PMSF), to which 1 g of polyvinylpyrrolidone is added. The suspension is stirred for 15 minutes at 4° C. and then centrifuged for 20 minutes at 27,000 g and at 4° C.
# (§8) The supernatant is supplemented with ammonium sulphate so as to bring the solution to 40% saturation with ammonium sulphate. The mixture is centrifuged for 20 minutes at 27,000 g and at 4° C. The new supernatant is supplemented with ammonium sulphate so as to bring the solution to 70% saturation with ammonium sulphate. The mixture is centrifuged for 30 minutes at 27,000 g and at 4° C. The EPSP synthase present in this protein pellet is taken up in 1 ml of buffer (20 mM Tris-HCl pH 7.8 and 50 mM mercaptoethanol). This solution is dialysed overnight against two litres of this same buffer at 4° C.
# (§9) The activity of each enzyme as well as its resistance to glyphosate is measured in vitro over 10 minutes at 37° C. in the following reaction mixture: 100 mM maleic acid pH 5.6, 1 mM phosphoenol pyruvate, 3 mM shikimate-3-phosphate (prepared according to Knowles P. P. and Sprinson D. B., 1970, Methods in Enzymol., 17A, 351-352 from Aerobacter aerogenes strain ATCC 25597) and 10 mM potassium fluoride. The enzymatic extract is added at the last moment after the addition of glyphosate whose final concentration varies from 0 to 20 mM.
# (§10) The activity is measured by assaying the phosphate liberated according to the technique of Tausky H. A. and Shorr B., 1953, J. Biol. Chem., 202, 675-685.
# maize EPSPS mutant Ala = assay: as above; assay type: biochemical
# Protocol: as §7, §8, §9, §10
# [11] = target: T1, maize EPSPS mutant Ile 102 (Zea mays, UniProt A0A1D6NVZ6, T164I); assay: as above; assay type: biochemical
# T1 sequence (A0A1D6NVZ6 63-506 T164I): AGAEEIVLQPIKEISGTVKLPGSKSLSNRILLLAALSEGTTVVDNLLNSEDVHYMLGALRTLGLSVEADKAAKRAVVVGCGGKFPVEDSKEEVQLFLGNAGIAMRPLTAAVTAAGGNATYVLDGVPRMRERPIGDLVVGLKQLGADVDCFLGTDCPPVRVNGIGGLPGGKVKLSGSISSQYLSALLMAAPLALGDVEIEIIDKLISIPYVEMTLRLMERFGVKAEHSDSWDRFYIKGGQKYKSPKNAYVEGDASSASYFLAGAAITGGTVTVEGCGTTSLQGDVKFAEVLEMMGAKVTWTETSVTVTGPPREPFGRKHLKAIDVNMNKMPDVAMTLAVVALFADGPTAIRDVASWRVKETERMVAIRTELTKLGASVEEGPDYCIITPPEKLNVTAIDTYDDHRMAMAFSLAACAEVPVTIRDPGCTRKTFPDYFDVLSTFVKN
# Protocol: as §7, §8, §9, §10
# [12] = tested on: maize EPSPS mutant Ile 102/Ser 106; assay: as above; assay type: biochemical
# Protocol: as §7, §8, §9, §10
# [13] = tested on: maize EPSPS mutant Ser106; assay: as above; assay type: biochemical; settings: 0.12 mM glyphosate
# Protocol: as §7, §8, §9, §10
# [14] = tested on: wild-type (WT) maize EPSPS; assay: as above; assay type: biochemical; settings: 0.12 mM glyphosate; 10 minutes at 37° C., pH 5.6
# Protocol: as §7, §8, §9, §10
smiles,measurement,setting,value
"CS(=O)(=O)c1cc(C(F)(F)F)ccc1C(=O)c1cnoc1C1CC1 [isoxaflutole, 4-[4-CF3-2-(methylsulphonyl)benzoyl]-5-cyclopropylisoxazole]",time to development of chlorosis,[1]; doses ranging from 50 to 400 g/ha,about 72 hours
same,"very pronounced necrosis, share of the terminal leaves covered","[1]; within one week, doses 50 to 400 g/ha",about 80%
same,protection against treatment,[2]; dose of 400 g/ha,very well protected
same,"protection against treatment, symptoms",[2]; enzyme overexpressed in the chloroplast (vector pRP V),perfectly protected and shows no symptom
same,"phytotoxicity, percentage destruction",[3]; 200 g/ha postemergence,4%
same,"phytotoxicity, percentage destruction",[3]; 400 g/ha postemergence,5%
same,"phytotoxicity, percentage destruction",[4]; 200 g/ha postemergence,75%
same,"phytotoxicity, percentage destruction",[4]; 400 g/ha postemergence,85%
same,"phytotoxicity, percentage destruction",[5]; 200 g/ha postemergence,2%
same,"phytotoxicity, percentage destruction",[5]; 400 g/ha postemergence,3%
same,tolerance,[6],tolerant
same,Number of dead plants,nontransgenic maize,20
same,Number of germinated plants,nontransgenic maize,20
same,Number of surviving plants,nontransgenic maize,0
same,Number of dead plants,[7]; 100 g/ha,3
same,Number of germinated plants,[7]; 100 g/ha,5
same,Number of surviving plants,[7]; 100 g/ha,2
same,Number of dead plants,[7]; 200 g/ha,7
same,Number of germinated plants,[7]; 200 g/ha,7
same,Number of surviving plants,[7]; 200 g/ha,0
same,Number of dead plants,[8]; 100 g/ha,5
same,Number of germinated plants,[8]; 100 g/ha,10
same,Number of surviving plants,[8]; 100 g/ha,5
same,Number of dead plants,[8]; 200 g/ha,4
same,Number of germinated plants,[8]; 200 g/ha,9
same,Number of surviving plants,[8]; 200 g/ha,5
same,Number of dead plants,[9]; 100 g/ha,6
same,Number of germinated plants,[9]; 100 g/ha,9
same,Number of surviving plants,[9]; 100 g/ha,3
same,Number of dead plants,[9]; 200 g/ha,7
same,Number of germinated plants,[9]; 200 g/ha,10
same,Number of surviving plants,[9]; 200 g/ha,3
O=C(O)CNCP(=O)(O)O [glyphosate],inhibition of enzyme activity,[10]; 0.12 mM glyphosate,not or not strongly inhibited
same,inhibition of enzyme activity,[10]; 1.2 mM glyphosate,not being inhibited
same,inhibition of enzyme activity,[10]; up to concentrations of 10 m glyphosate,not inhibited
same,inhibition of enzyme activity,maize EPSPS mutant Ala,not inhibited
same,inhibition of enzyme activity,maize EPSPS mutant Ala; 1.2 mM glyphosate,not being inhibited
same,inhibition of enzyme activity,[11]; 0.12 mM glyphosate,not or not strongly inhibited
same,IC50,"[11]; 10 minutes at 37° C., pH 5.6, read-out: glyphosate concentration to inhibit the enzyme by 50%",1200 µM
same,inhibition of enzyme activity,[12]; 0.12 mM glyphosate,not or not strongly inhibited
same,inhibition of enzyme activity,[12]; 1.2 mM glyphosate,not being inhibited
same,reduction of enzyme activity,[12]; 20 mM glyphosate,not reduced
same,inhibition of enzyme activity,[13],50%
same,inhibition of enzyme activity,[14],85%
same,"phytotoxicity, percentage destruction",[4]; 800 g/ha postemergence,100%
same,"phytotoxicity, percentage destruction",[4]; 1200 g/ha postemergence,100%
same,"phytotoxicity, percentage destruction",[5]; 800 g/ha postemergence,0%
same,"phytotoxicity, percentage destruction",[5]; 1200 g/ha postemergence,0%
same,tolerance,[6],tolerant

# Reference: patent US7935869B2, “Chimeric gene with several herbicide tolerance genes, plant cell and plant resistant to several herbicides” (Bayer S.A.S., priority 1996, dated 2011)
